Data reported in ChEMBL document CHEMBL5579862, “Development of Novel Bacterial Topoisomerase Inhibitors Assisted by Computational Screening” (ACS Med Chem Lett, 2024).
In brackets after ≈: the same amount, converted by molar mass. Activity calls are given as the source filed them. The rule behind the calls is not given here.

Columns and labels:
Staphylococcus aureus [1] = experiment: Antibacterial activity against methicillin resistant Staphylococcus aureus USA300; assay type: functional
Staphylococcus aureus [2] = experiment: Antibacterial activity against Staphylococcus aureus D83N; assay type: functional
Staphylococcus aureus [3] = experiment: Antibacterial activity against Staphylococcus aureus ATCC 29213; assay type: functional
Salmonella typhimurium [4] = experiment: Antibacterial activity against efflux deficient Salmonella typhimurium 14028 deltatolC1::kan; assay type: functional, Salmonella enterica subsp. enterica serovar Typhimurium; details: Salmonella enterica
Topoisomerase IV = Topoisomerase IV (Staphylococcus aureus, UniProt P0C1S7+P0C1U9); experiment: Inhibition of Staphylococcus aureus topoisomerase-IV assessed as reduction in decatenation using kinetoplast DNA as substrate incubated for 20 mins by ethidium bromide staining based agarose gel electrophoresis method; assay type: protein-complex assay
DNA gyrase [5] = biological target: DNA gyrase (Escherichia coli, UniProt P0AES4+P0AES6); experiment: Inhibition of Escherichia coli DNA gyrase using relaxed pBR322 DNA as substrate incubated at 37 degreeC for 30 to 45 mins followed by incubation at 75 degreeC for 10 mins by ethidium bromide staining based agarose gel electrophoresis method; assay type: protein-complex assay
[6] = biological target: T1, Topoisomerase IV (Staphylococcus aureus) (UniProt P0C1U9+P0C1S7); experiment: Inhibition of Staphylococcus aureus DNA topoisomerase IV assessed as accumulation of single strand breaks incubated at 37 degreeC for 30 mins followed by incubation at 45 degreeC for 30 mins by ethidium bromide based agarose gel electrophoresis; assay type: protein-complex assay; details: time 60.0 min
DNA gyrase [7] = biological target: DNA gyrase (Staphylococcus aureus, UniProt P0A0K8+P20831); experiment: Inhibition of Staphylococcus aureus DNA gyrase using relaxed pBR322 DNA as substrate incubated for 30 mins by ethidium bromide staining based agarose gel electrophoresis method; assay type: protein-complex assay
[8] = biological target: DNA gyrase (Staphylococcus aureus) (UniProt P0A0K8+P20831); experiment: Inhibition of Staphylococcus aureus DNA gyrase assessed as accumulation of single strand breaks at 10 uM incubated at 37 degreeC for 30 mins followed by incubation at 45 degreeC for 30 mins by ethidium bromide based agarose gel electrophoresis; assay type: protein-complex assay; details: time 60.0 min
[9] = biological target: T1, Topoisomerase IV (Staphylococcus aureus); experiment: Inhibition of Staphylococcus aureus DNA topoisomerase IV assessed as accumulation of double strand breaks incubated at 37 degreeC for 30 mins followed by incubation at 45 degreeC for 30 mins by ethidium bromide based agarose gel electrophoresis; assay type: protein-complex assay; details: time 60.0 min
Salmonella typhimurium [10] = experiment: Antibacterial activity against Salmonella typhimurium ATCC 14028; assay type: functional, Salmonella enterica subsp. enterica serovar Typhimurium; details: Salmonella enterica
Acinetobacter baumannii = experiment: Antibacterial activity against Acinetobacter baumannii ATCC 19606; assay type: functional
Escherichia coli = experiment: Antibacterial activity against Escherichia coli ATCC 25922; assay type: functional

Structure (SMILES) | MIC (Staphylococcus aureus [1]) | MIC (Staphylococcus aureus [2]) | MIC (Staphylococcus aureus [3]) | MIC (Salmonella typhimurium [4]) | MIC (Salmonella typhimurium [10]) | MIC (Acinetobacter baumannii) | further results
COc1ccc2ncc(F)c(CCN3CCC([C@@H](O)[C@@H](O)c4ccc5c(c4)OCCO5)CC3)c2n1 | 0.03 mg/L (≈ 0.062 µM) |  |  |  |  |  | 
COc1ccc2ncc(F)c(CCN3CCC([C@@H](O)[C@H](O)c4ccc5c(c4)NC(=O)CO5)CC3)c2n1 |  | ≥ 32 mg/L |  |  |  |  | 
COc1ccc2ncc(F)c(CCN3CCC([C@H](O)[C@H](O)c4ccc5c(c4)OCCO5)CC3)c2n1 |  |  | ≤ 0.13 mg/L |  |  |  | 
COc1ccc2ncc(F)c(CCN3CCC(C(O)Cc4ccc5c(c4)OCC(=O)N5)CC3)c2n1 (stereo not drawn) |  |  |  | 0.125 mg/L (≈ 0.26 µM) |  |  | 
COc1ccc2ncc(F)c(CCN3CCC(C(N)Cc4ccc(C)cc4)CC3)c2n1 (stereo not drawn) |  | 32 mg/L (≈ 75.7 µM) |  |  |  |  | IC50 (Topoisomerase IV): 82.6 µM; IC50 (DNA gyrase [5]): > 400 µM; inhibition [6]: Active; IC50 (DNA gyrase [7]): 5.05 µM; inhibition [8]: Active; inhibition [9]: < 1%
COc1ccc2ncc(F)c(CCN3CCC(CCc4ccc(C)cc4)CC3)c2n1 |  | 4 mg/L (≈ 9.82 µM) |  |  | ≥ 64 mg/L |  | 
COc1ccc2ncc(F)c(CCN3CCC([C@H](O)[C@H](O)c4ccc(C)cc4)CC3)c2n1 | 0.13 mg/L (≈ 0.296 µM) |  |  |  |  |  | IC50 (Topoisomerase IV): 3.31 µM; IC50 (DNA gyrase [5]): 17.1 µM; inhibition [6]: Active; IC50 (DNA gyrase [7]): 0.065 µM; inhibition [9]: < 1%
COc1ccc2ncc(F)c(CCN3CCC(NCc4ccc(C)cc4)CC3)c2n1 | ≤ 0.25 mg/L | 16 mg/L (≈ 39.2 µM) | ≤ 0.25 mg/L | 0.5 mg/L (≈ 1.22 µM) | 32 mg/L (≈ 78.3 µM) | 4 mg/L (≈ 9.79 µM) | IC50 (Topoisomerase IV): 0.69 µM; inhibition [6]: Active; IC50 (DNA gyrase [7]): 0.004 µM; MIC (Escherichia coli): 4 mg/L (≈ 9.79 µM); inhibition [8]: Active; inhibition [9]: < 1%
COc1ccc2ncc(F)c(CCN3CCC(C(O)Cc4ccc5c(c4)OCCO5)CC3)c2n1 (stereo not drawn) |  | 4 mg/L (≈ 8.56 µM) |  |  |  |  | 
COc1ccc2ncc(F)c(CCN3CCC([C@H](O)[C@@H](O)c4ccc(C)cc4)CC3)c2n1 | 2 mg/L (≈ 4.55 µM) |  |  |  |  | 32 mg/L (≈ 72.8 µM) | 
COc1ccc2ncc(F)c(CCN3CCC(/C=C\c4ccc5c(c4)OCCO5)CC3)c2n1 | 8 mg/L (≈ 17.8 µM) | ≥ 16 mg/L | 8 mg/L (≈ 17.8 µM) | 4 mg/L (≈ 8.9 µM) | ≥ 64 mg/L | 64 mg/L (≈ 142 µM) | MIC (Escherichia coli): ≥ 64 mg/L
COc1ccc2ncc(F)c(CCN3CCC(/C=C\c4ccc5c(c4)NC(=O)CO5)CC3)c2n1 |  | ≥ 64 mg/L | ≥ 64 mg/L | 16 mg/L (≈ 34.6 µM) |  | 32 mg/L (≈ 69.2 µM) | 
COc1ccc2ncc(F)c(CCN3CCC([C@H](O)[C@@H](O)c4ccc5c(c4)NC(=O)CO5)CC3)c2n1 |  |  |  | 0.25 mg/L (≈ 0.503 µM) |  |  | 
COc1ccc2ncc(F)c(CCN3CCC([C@@H](O)[C@@H](O)c4ccc(C)cc4)CC3)c2n1 | 0.25 mg/L (≈ 0.569 µM) |  | 0.13 mg/L (≈ 0.296 µM) |  |  |  | 
COc1ccc2ncc(F)c(CCN3CCC(C(=O)Cc4ccc5c(c4)NC(=O)CO5)CC3)c2n1 |  |  | ≤ 0.13 mg/L |  | 16 mg/L (≈ 33.4 µM) | 4 mg/L (≈ 8.36 µM) | MIC (Escherichia coli): 2 mg/L (≈ 4.18 µM)
COc1ccc2ncc(F)c(CCN3CCC(C(=O)Cc4ccc5c(c4)OCCO5)CC3)c2n1 | 4 mg/L (≈ 8.59 µM) | 32 mg/L (≈ 68.7 µM) | 4 mg/L (≈ 8.59 µM) | ≥ 1 mg/L |  | 64 mg/L (≈ 137 µM) | MIC (Escherichia coli): 64 mg/L (≈ 137 µM)
COc1ccc2ncc(F)c(CCN3CCC([C@@H](O)[C@H](O)c4ccc5c(c4)OCCO5)CC3)c2n1 | 1 mg/L (≈ 2.07 µM) |  |  |  |  |  | 
COc1ccc2ncc(F)c(CCN3CCC(C(N)Cc4ccc5c(c4)OCCO5)CC3)c2n1 (stereo not drawn) |  | ≥ 16 mg/L |  |  |  |  | 
COc1ccc2ncc(F)c(CCN3CCC(/C=C/c4ccc5c(c4)OCCO5)CC3)c2n1 | 0.5 mg/L (≈ 1.11 µM) | 2 mg/L (≈ 4.45 µM) | 0.25 mg/L (≈ 0.556 µM) | 0.125 mg/L (≈ 0.278 µM) | 64 mg/L (≈ 142 µM) | 8 mg/L (≈ 17.8 µM) | MIC (Escherichia coli): 8 mg/L (≈ 17.8 µM)
COc1ccc2ncc(F)c(CCN3CCC(CCc4ccc5c(c4)OCCO5)CC3)c2n1 |  | 8 mg/L (≈ 17.7 µM) |  | 0.25 mg/L (≈ 0.554 µM) |  |  | 
COc1ccc2ncc(F)c(CCN3CCC(/C=C/c4ccc(C)cc4)CC3)c2n1 |  | ≥ 32 mg/L | 0.25 mg/L (≈ 0.616 µM) | 0.5 mg/L (≈ 1.23 µM) | ≥ 64 mg/L |  | 
COc1ccc2ncc(F)c(CCN3CCC(/C=C/c4ccc5c(c4)NC(=O)CO5)CC3)c2n1 | ≤ 0.25 mg/L | 16 mg/L (≈ 34.6 µM) | 0.5 mg/L (≈ 1.08 µM) | 0.25 mg/L (≈ 0.541 µM) | 16 mg/L (≈ 34.6 µM) | 8 mg/L (≈ 17.3 µM) | 
COc1ccc2ncc(F)c(CCN3CCC(C(O)Cc4ccc(C)cc4)CC3)c2n1 (stereo not drawn) | 0.25 mg/L (≈ 0.59 µM) | 8 mg/L (≈ 18.9 µM) |  | 1 mg/L (≈ 2.36 µM) |  |  | IC50 (Topoisomerase IV): 2.29 µM; IC50 (DNA gyrase [5]): 12.4 µM; inhibition [6]: Active; IC50 (DNA gyrase [7]): 0.24 µM; inhibition [9]: < 1%
COc1ccc2ncc(F)c(CCN3CCC([C@@H](O)[C@H](O)c4ccc(C)cc4)CC3)c2n1 | 2 mg/L (≈ 4.55 µM) |  |  | 0.5 mg/L (≈ 1.14 µM) |  |  | 
COc1ccc2ncc(F)c(CCN3CCC(/C=C\c4ccc(C)cc4)CC3)c2n1 | 4 mg/L (≈ 9.86 µM) | 32 mg/L (≈ 78.9 µM) | 4 mg/L (≈ 9.86 µM) | 8 mg/L (≈ 19.7 µM) |  |  | 
O=c1ccc2ncc(=O)n3c2n1C[C@H]3CN1CCC(NCc2cc3c(cn2)OCCC3)CC1 [GEPOTIDACIN] |  | 8 mg/L (≈ 17.8 µM) |  | 0.125 mg/L (≈ 0.279 µM) | 2 mg/L (≈ 4.46 µM) | 8 mg/L (≈ 17.8 µM) | MIC (Escherichia coli): 1 mg/L (≈ 2.23 µM)
